Legend:
[1] = target: T1, Ovine COX-1 (Ovis aries, UniProt P05979); test: COX-1 oxygenation of arachidonic acid, oxygen electrode; format: biochemical; conditions: for COX-1 activity (% of control): 10 µM AA, initial activity 10-30 s, mean ± s.e.m., n = 3; for inhibition at 300 µM: 300 µM compound
T1 construct: purchased Cayman Chemical Co. 60100
T1 sequence (P05979 25-600): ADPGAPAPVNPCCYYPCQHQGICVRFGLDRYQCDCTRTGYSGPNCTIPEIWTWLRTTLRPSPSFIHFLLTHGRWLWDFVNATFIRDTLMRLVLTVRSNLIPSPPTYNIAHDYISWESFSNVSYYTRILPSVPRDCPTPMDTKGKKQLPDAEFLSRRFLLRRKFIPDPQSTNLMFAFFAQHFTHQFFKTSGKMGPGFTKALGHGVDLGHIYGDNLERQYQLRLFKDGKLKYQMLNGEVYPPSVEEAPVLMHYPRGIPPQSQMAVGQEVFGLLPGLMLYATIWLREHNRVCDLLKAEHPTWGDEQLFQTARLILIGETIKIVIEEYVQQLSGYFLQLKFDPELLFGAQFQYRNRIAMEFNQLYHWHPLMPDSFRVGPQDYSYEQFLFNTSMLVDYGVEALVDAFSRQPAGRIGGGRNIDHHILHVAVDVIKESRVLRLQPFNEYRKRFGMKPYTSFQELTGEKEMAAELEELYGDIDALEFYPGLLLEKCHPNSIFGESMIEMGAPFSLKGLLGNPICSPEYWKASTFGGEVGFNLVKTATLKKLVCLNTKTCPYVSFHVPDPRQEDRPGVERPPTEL
Description: (§1) The assay was performed according to Meade et al. with minor modifications using an oxygen electrode chamber with integral stirring (Oxygraph System, Hansatech Instruments, King’s Lynn, U.K.). The electrode was calibrated to ambient temperature and air pressure. Samples were prepared in 0.1 M Tris-HCl buffer pH 7.4 containing 1 µM haematin, 2 mM phenol, 5 mM EDTA, 10 µM substrate (AA or 2-AG) (final assay volume was 2 ml). After addition of test substance dissolved in DMSO (final assay concentration 1%) a baseline was established for 5 min before initiation of reaction by addition of 200 units COX-1 or COX-2. Change in oxygen consumption was monitored for approximately 5 min.
(§2) FAAH inhibition was calculated using log(inhibitor) vs. response with variable slope (four parameters) algorithm in the GraphPad Prism computer program (GraphPad Software Inc., San Diego, CA. USA). […] The two curves were compared by Akaike’s informative criteria and the best fit was chosen. Initial COX activities were calculated as the change in oxygen tension between 10 and 30 seconds after addition of enzyme.

[2] = cited from earlier work
[3] = target: T2, human recombinant COX-2 (Homo sapiens, UniProt P35354); test: COX-2 oxygenation of 2-AG, oxygen electrode; format: biochemical; conditions: for COX-2 activity (% of control): substrate 2-AG 10 µM, initial activity 10-30 s, n = 3
T2 construct: purchased Cayman Chemical Co. 60122
T2 sequence (P35354 18-604): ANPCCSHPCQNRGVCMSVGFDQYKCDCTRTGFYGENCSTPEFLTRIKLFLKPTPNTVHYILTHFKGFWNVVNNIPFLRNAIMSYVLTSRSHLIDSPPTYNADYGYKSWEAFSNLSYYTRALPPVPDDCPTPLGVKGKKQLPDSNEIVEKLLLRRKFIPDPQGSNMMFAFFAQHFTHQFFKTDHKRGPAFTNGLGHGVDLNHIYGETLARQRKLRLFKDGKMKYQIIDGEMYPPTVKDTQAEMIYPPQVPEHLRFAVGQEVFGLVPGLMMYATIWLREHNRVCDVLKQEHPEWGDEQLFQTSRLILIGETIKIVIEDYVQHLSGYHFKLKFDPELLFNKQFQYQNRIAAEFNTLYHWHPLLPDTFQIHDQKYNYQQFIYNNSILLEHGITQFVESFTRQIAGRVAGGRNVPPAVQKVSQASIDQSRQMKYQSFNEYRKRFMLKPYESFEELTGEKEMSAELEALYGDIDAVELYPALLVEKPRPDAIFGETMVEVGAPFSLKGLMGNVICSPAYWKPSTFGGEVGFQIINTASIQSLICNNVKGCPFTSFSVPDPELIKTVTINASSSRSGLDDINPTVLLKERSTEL
Description: as §1, §2

[4] = read-out: inhibition of COX-1-catalysed oxygenation of arachidonic acid

| SMILES | COX-1 activity (% of control) ([1]; 100 µM NSAID) | COX-1 activity (% of control) ([1]; 300 µM NSAID) | inhibition at 300 µM [1, 4] [%] | COX-1 activity (% of control) ([1]; 1000 µM NSAID) | urinary recovery ([2]; 24 h after administration of 400 mg of ibuprofen) [%] | COX-2 activity (% of control) ([3]; 100 µM NSAID) | COX-2 activity (% of control) ([3]; 300 µM NSAID) | inhibition of COX-2-catalysed oxygenation of 2-AG at longer incubation times ([3]; lower potency than the parent compound, initial inhibition (10-30 s) only modestly affected) | inhibition at 100 µM ([1]; 100 µM compound, read-out: inhibition of COX-1-catalysed oxygenation of arachidonic acid) [%] | inhibition at 1000 µM ([1]; 1000 µM compound, read-out: inhibition of COX-1-catalysed oxygenation of arachidonic acid) [%] | share of the dose recovered in the urine ([2]; flurbiprofen 50 mg a day for 10 consecutive days) [%] | COX-2 activity (% of control) ([3]; 30 µM NSAID) | inhibition of cyclooxygenation of 2-AG ([3]; 30 µM compound) | inhibition of cyclooxygenation of 2-AG ([3]; 100 µM compound) | inhibition of cyclooxygenation of 2-AG ([3]; 300 µM compound) |
| --- | --- | --- | --- | --- | --- | --- | --- | --- | --- | --- | --- | --- | --- | --- | --- |
| CC(C(=O)O)c1ccc(CC(C)(C)O)cc1 (stereo not drawn) [2′-OH-Ibuprofen, 2-[4-(2-hydroxy-2-methylpropyl)phenyl]propionic acid] | 102±17 % of control | 91±5 % of control | 9 | 95±3 % of control | 23 | 125±24 % of control | 115±21 % of control | – | – | – | – | – | – | – | – |
| CC(CO)Cc1ccc(C(C)C(=O)O)cc1 (stereo not drawn) [3′-OH-Ibuprofen, 2-[4-(3-hydroxy-2-methylpropyl)phenyl]propionic acid] | 81±16 % of control | 97±10 % of control | 3 | 68±15 % of control | – | 73±14 % of control | 91±2 % of control | retained the ability of ibuprofen to inhibit | – | – | – | – | – | – | – |
| CC(C(=O)O)c1ccc(-c2ccc(O)cc2)c(F)c1 (stereo not drawn) [4′-OH-Flurbiprofen] | 97±31 % of control | 72±20 % of control | 28 | 6±6 % of control | – | 24±4 % of control | −6±9 % of control | – | 3 | 94 | 43 | 39±11 % of control | partially | partially | completely |
